{"source": "patent US20250213555A1", "about": "“SUBSTITUTED TETRAHYDROFURAN ANALOGS AS MODULATORS OF SODIUM CHANNELS” (VERTEX PHARMACEUTICALS INCORPORATED, priority 2021, published 2025)", "data": [{"molecular_target": "human Nav 1.8 (Homo sapiens, UniProt Q9Y5Y9)", "sequence (Q9Y5Y9 126-399 limits assumed)": "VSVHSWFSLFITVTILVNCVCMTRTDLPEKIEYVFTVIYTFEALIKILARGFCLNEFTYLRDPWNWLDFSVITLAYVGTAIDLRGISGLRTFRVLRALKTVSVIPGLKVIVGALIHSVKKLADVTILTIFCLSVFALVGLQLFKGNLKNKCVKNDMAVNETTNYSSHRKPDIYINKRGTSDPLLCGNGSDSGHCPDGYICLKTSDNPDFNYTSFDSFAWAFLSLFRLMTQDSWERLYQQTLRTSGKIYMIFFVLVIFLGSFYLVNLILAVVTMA", "sequence (Q9Y5Y9 660-890 limits assumed)": "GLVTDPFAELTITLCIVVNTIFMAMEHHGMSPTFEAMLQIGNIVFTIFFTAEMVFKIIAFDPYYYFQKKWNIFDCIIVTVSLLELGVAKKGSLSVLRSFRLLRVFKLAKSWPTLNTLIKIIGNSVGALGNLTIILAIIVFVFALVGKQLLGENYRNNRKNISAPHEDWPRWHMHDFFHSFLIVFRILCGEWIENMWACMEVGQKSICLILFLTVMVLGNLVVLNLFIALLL", "sequence (Q9Y5Y9 1148-1722 limits assumed)": "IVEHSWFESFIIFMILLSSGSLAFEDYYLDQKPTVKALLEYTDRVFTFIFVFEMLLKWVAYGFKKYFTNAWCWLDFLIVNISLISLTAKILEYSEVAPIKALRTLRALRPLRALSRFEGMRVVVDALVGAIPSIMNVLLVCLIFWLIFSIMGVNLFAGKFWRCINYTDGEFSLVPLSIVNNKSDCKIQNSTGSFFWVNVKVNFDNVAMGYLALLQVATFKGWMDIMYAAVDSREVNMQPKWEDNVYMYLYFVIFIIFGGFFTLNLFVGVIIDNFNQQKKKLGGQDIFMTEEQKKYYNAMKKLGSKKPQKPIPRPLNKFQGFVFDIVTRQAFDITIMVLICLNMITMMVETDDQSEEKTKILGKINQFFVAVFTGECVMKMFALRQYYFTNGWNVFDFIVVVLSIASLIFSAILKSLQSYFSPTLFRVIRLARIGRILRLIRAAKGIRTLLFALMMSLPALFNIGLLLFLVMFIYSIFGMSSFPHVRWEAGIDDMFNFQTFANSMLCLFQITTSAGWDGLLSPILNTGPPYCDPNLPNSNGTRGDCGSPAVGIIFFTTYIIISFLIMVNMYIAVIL", "test": "E-VIPR assay detecting and measuring Nav inhibition properties", "assay_type": "cell-based", "settings": "HEK cells expressing a truncated form of human Nav 1.8; assay performed in the presence of human serum (compound numbers followed by \"*\"); read-out: measured IC50 value in the E-VIPR Assay", "procedure,_shortened": "(§1)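 Nav inhibition was read by E-VIPR: cells were electrically stimulated while coumarin/oxonol FRET emissions were recorded. Cells were HEK expressing a truncated human Nav 1.8 and co-transduced with KIR2.1, and were assayed in 25% final human serum.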", "units": {"IC50": "nM"}, "values": [{"smiles": "COCC[C@]1(C)C[C@@H](c2ccc(F)c(F)c2OC)[C@H](C(=O)Nc2ccnc(C(N)=O)c2)O1", "note": "(single isomer, unassigned) [Compound 30]", "IC50": "≥ 1000"}]}, {"molecular_target": "human Nav 1.8 (Homo sapiens, UniProt Q9Y5Y9)", "test": "E-VIPR assay detecting and measuring Nav inhibition properties", "assay_type": "cell-based", "settings": "HEK cells expressing a truncated form of human Nav 1.8; compound numbers without \"*\" (not marked as run in the presence of human serum); read-out: measured IC50 value in the E-VIPR Assay", "procedure,_shortened": "as §1", "units": {"IC50": "nM"}, "values": [{"smiles": "COc1c(Cl)cc([C@H]2[C@H](C(=O)Nc3ccnc(C(N)=O)c3)O[C@@](C)(C(F)(F)F)[C@H]2C)c(OC)c1F", "note": "[Compound 154, 4-((2R,3S,4S,5R)-3-(5-chloro-3-fluoro-2,4-dimethoxyphenyl)-4,5-dimethyl-5-(trifluoromethyl)tetrahydrofuran-2-carboxamido) picolinamide]", "IC50": "< 10"}, {"smiles": "C[C@H]1[C@@H](c2ccc(F)c(F)c2OC2CCC(O)C2)[C@H](C(=O)Nc2ccnc(C(N)=O)c2)O[C@@]1(C)C(F)(F)F", "note": "(stereo partly drawn) [Compound 175, 4-((2R,3S,4S,5R)-3-(3,4-difluoro-2-((3-hydroxycyclopentyl)oxy)phenyl)-4,5-dimethyl-5-(trifluoromethyl)tetrahydrofuran-2-carboxamido)picolinamide]", "IC50": "< 10"}, {"smiles": "C[C@H]1[C@@H](c2ccc(F)c(F)c2OCC2(F)CN(C)C2)[C@H](C(=O)Nc2ccnc(C(N)=O)c2)O[C@@]1(C)C(F)(F)F", "note": "[Compound 105, 4-((2R,3S,4S,5R)-3-(3,4-difluoro-2-((3-fluoro-1-methylazetidin-3-yl)methoxy)phenyl)-4,5-dimethyl-5-(trifluoromethyl)tetrahydrofuran-2-carboxamido)picolinamide]", "IC50": "10 to 100"}, {"smiles": "COc1c([C@H]2[C@H](C(=O)Nc3ccnc(C(=O)NCCO)c3)O[C@@](C)(C(F)(F)F)[C@H]2C)ccc(F)c1F", "note": "[Compound 221, 4-((2R,3S,4S,5R)-3-(3,4-difluoro-2-methoxyphenyl)-4,5-dimethyl-5-(trifluoromethyl)tetrahydrofuran-2-carboxamido)-N-(2-hydroxyethyl)picolinamide]", "IC50": "< 10"}, {"smiles": "C[C@H]1[C@@H](c2ccc(F)c(F)c2OC2CN(C)C2)[C@H](C(=O)Nc2ccnc(C(N)=O)c2)O[C@@]1(C)C(F)(F)F", "note": "[Compound 101, 4-((2R,3S,4S,5R)-3-(3,4-difluoro-2-((1-methylazetidin-3-yl)oxy)phenyl)-4,5-dimethyl-5-(trifluoromethyl)tetrahydrofuran-2-carboxamido) picolinamide]", "IC50": "10 to 100"}, {"smiles": "C[C@H]1[C@@H](c2ccc(F)c(F)c2OCCN[C@H]2CCOC2)[C@H](C(=O)Nc2ccnc(C(N)=O)c2)O[C@@]1(C)C(F)(F)F", "note": "[Compound 117, 4-((2R,3S,4S,5R)-3-(3,4-difluoro-2-(2-(((S)-tetrahydrofuran-3-yl)amino)ethoxy)phenyl)-4,5-dimethyl-5-(trifluoromethyl)tetrahydrofuran-2-carboxamido)picolinamide]", "IC50": "10 to 100"}, {"smiles": "C[C@H]1[C@@H](c2ccc(F)c(F)c2OCC(CO)C(F)(F)F)[C@H](C(=O)Nc2ccnc(C(N)=O)c2)O[C@@]1(C)C(F)(F)F", "note": "(stereo partly drawn) [Compound 169, 4-((2R,3S,4S,5R)-3-(3,4-difluoro-2-(3,3,3-trifluoro-2-(hydroxymethyl)propoxy)phenyl)-4,5-dimethyl-5-(trifluoromethyl)tetrahydrofuran-2-carboxamido)picolinamide]", "IC50": "< 10"}, {"smiles": "CON=C(C)COc1c([C@H]2[C@H](C(=O)Nc3ccnc(C(N)=O)c3)O[C@@](C)(C(F)(F)F)[C@H]2C)ccc(F)c1F", "note": "(single isomer, unassigned) [Compound 194, rel-4-((2R*,3S*,4S*,5R*)-3-(3,4-difluoro-2-(2-(methoxyimino)propoxy)phenyl)-4,5-dimethyl-5-(trifluoromethyl)tetrahydrofuran-2-carboxamido)picolinamide]", "IC50": "< 10"}, {"smiles": "COc1c([C@H]2[C@H](C(=O)Nc3ccnc(C(=O)N(C)[C@H]4CNC[C@@H]4OC)c3)O[C@@](C)(C(F)(F)F)[C@H]2C)ccc(F)c1F", "note": "[Compound 247, 4-((2R,3S,4S,5R)-3-(3,4-difluoro-2-methoxyphenyl)-4,5-dimethyl-5-(trifluoromethyl)tetrahydrofuran-2-carboxamido)-N-((3S,4S)-4-methoxypyrrolidin-3-yl)-N-methylpicolinamide]", "IC50": "< 10"}, {"smiles": "COc1c([C@H]2[C@H](C(=O)Nc3ccnc(C(=O)NC[C@@H]4CC(F)(F)CN4)c3)O[C@@](C)(C(F)(F)F)[C@H]2C)ccc(F)c1F", "note": "[Compound 226, 4-((2R,3S,4S,5R)-3-(3,4-difluoro-2-methoxyphenyl)-4,5-dimethyl-5-(trifluoromethyl)tetrahydrofuran-2-carboxamido)-N-(((S)-4,4-difluoropyrrolidin-2-yl)methyl)picolinamide]", "IC50": "100 to 1000"}, {"smiles": "COCC(CO)COc1c([C@H]2[C@H](C(=O)Nc3ccnc(C(N)=O)c3)O[C@@](C)(C(F)(F)F)[C@H]2C)ccc(F)c1F", "note": "(stereo partly drawn) [Compound 155, 4-((2R,3S,4S,5R)-3-(3,4-difluoro-2-(3-hydroxy-2-(methoxymethyl)propoxy)phenyl)-4,5-dimethyl-5-(trifluoromethyl)tetrahydrofuran-2-carboxamido) picolinamide]", "IC50": "10 to 100"}, {"smiles": "C[C@H]1[C@@H](c2ccc(F)c(F)c2OCC#N)[C@H](C(=O)Nc2ccnc(C(N)=O)c2)O[C@@]1(C)C(F)(F)F", "note": "[Compound 69, 4-((2R,3S,4S,5R)-3-(2-(cyanomethoxy)-3,4-difluorophenyl)-4,5-dimethyl-5-(trifluoromethyl)tetrahydrofuran-2-carboxamido)picolinamide]", "IC50": "< 10"}, {"smiles": "C[C@H]1[C@@H](c2ccc(F)c(F)c2OCCNC2COC2)[C@H](C(=O)Nc2ccnc(C(N)=O)c2)O[C@@]1(C)C(F)(F)F", "note": "[Compound 118, 4-((2R,3S,4S,5R)-3-(3,4-difluoro-2-(2-(oxetan-3-ylamino)ethoxy)phenyl)-4,5-dimethyl-5-(trifluoromethyl)tetrahydrofuran-2-carboxamido)picolinamide]", "IC50": "10 to 100"}, {"smiles": "C[C@H]1[C@@H](c2ccc(F)c(F)c2OCCCO)[C@H](C(=O)Nc2ccnc(C(N)=O)c2)O[C@@]1(C)C(F)(F)F", "note": "[Compound 72, 4-((2R,3S,4S,5R)-3-(3,4-difluoro-2-(3-hydroxypropoxy)phenyl)-4,5-dimethyl-5-(trifluoromethyl)tetrahydrofuran-2-carboxamido)picolinamide]", "IC50": "< 10"}, {"smiles": "COc1c([C@H]2[C@H](C(=O)Nc3ccnc(C(=O)NC[C@H]4CCCCN4)c3)O[C@@](C)(C(F)(F)F)[C@H]2C)ccc(F)c1F", "note": "[Compound 251, 4-((2R,3S,4S,5R)-3-(3,4-difluoro-2-methoxyphenyl)-4,5-dimethyl-5-(trifluoromethyl)tetrahydrofuran-2-carboxamido)-N-(((R)-piperidin-2-yl)methyl)picolinamide]", "IC50": "10 to 100"}, {"smiles": "C[C@H]1CN(CCOc2c([C@H]3[C@H](C(=O)Nc4ccnc(C(N)=O)c4)O[C@@](C)(C(F)(F)F)[C@H]3C)ccc(F)c2F)CCO1", "note": "[Compound 111, 4-((2R,3S,4S,5R)-3-(3,4-difluoro-2-(2-((S)-2-methylmorpholino)ethoxy)phenyl)-4,5-dimethyl-5-(trifluoromethyl)tetrahydrofuran-2-carboxamido)picolinamide]", "IC50": "< 10"}, {"smiles": "COc1c([C@H]2[C@H](C(=O)Nc3ccnc(C(=O)N(C)[C@@H]4CCN(C)C4)c3)O[C@@](C)(C(F)(F)F)[C@H]2C)ccc(F)c1F", "note": "[Compound 269, 4-((2R,3S,4S,5R)-3-(3,4-difluoro-2-methoxyphenyl)-4,5-dimethyl-5-(trifluoromethyl)tetrahydrofuran-2-carboxamido)-N-methyl-N-((R)-1-methylpyrrolidin-3-yl)picolinamide]", "IC50": "< 10"}, {"smiles": "C[C@H]1[C@@H](c2ccc(F)c(F)c2OCCCN2CCC2)[C@H](C(=O)Nc2ccnc(C(N)=O)c2)O[C@@]1(C)C(F)(F)F", "note": "[Compound 134, 4-((2R,3S,4S,5R)-3-(2-(3-(azetidin-1-yl)propoxy)-3,4-difluorophenyl)-4,5-dimethyl-5-(trifluoromethyl)tetrahydrofuran-2-carboxamido)picolinamide]", "IC50": "10 to 100"}, {"smiles": "C[C@H]1[C@@H](c2ccc(F)c(F)c2OCCCC#N)[C@H](C(=O)Nc2ccnc(C(N)=O)c2)O[C@@]1(C)C(F)(F)F", "note": "[Compound 76, 4-((2R,3S,4S,5R)-3-(2-(3-cyanopropoxy)-3,4-difluorophenyl)-4,5-dimethyl-5-(trifluoromethyl)tetrahydrofuran-2-carboxamido)picolinamide]", "IC50": "< 10"}, {"smiles": "COc1c([C@@H]2[C@@H](C(=O)Nc3ccnc(C(N)=O)c3)O[C@@](C)(C(F)(F)F)[C@H]2C)ccc(OCC2CC2)c1F", "note": "(single isomer, unassigned) [Compound 143]", "IC50": "100 to 1000"}, {"smiles": "C[C@H]1[C@@H](c2ccc(F)c(F)c2OCC2(CO)COC2)[C@H](C(=O)Nc2ccnc(C(N)=O)c2)O[C@@]1(C)C(F)(F)F", "note": "[Compound 94, 4-((2R,3S,4S,5R)-3-(3,4-difluoro-2-((3-(hydroxymethyl)oxetan-3-yl)methoxy)phenyl)-4,5-dimethyl-5-(trifluoromethyl)tetrahydrofuran-2-carboxamido)picolinamide]", "IC50": "100 to 1000"}, {"smiles": "C[C@H]1[C@@H](c2ccc(F)c(F)c2OCCN2CC[C@H](F)C2)[C@H](C(=O)Nc2ccnc(C(N)=O)c2)O[C@@]1(C)C(F)(F)F", "note": "[Compound 49, 4-((2R,3S,4S,5R)-3-(3,4-difluoro-2-(2-((S)-3-fluoropyrrolidin-1-yl)ethoxy)phenyl)-4,5-dimethyl-5-(trifluoromethyl)tetrahydrofuran-2-carboxamido)picolinamide]", "IC50": "10 to 100"}, {"smiles": "C[C@H]1[C@@H](c2ccc(F)c(F)c2OCCN2CC(C(F)F)C2)[C@H](C(=O)Nc2ccnc(C(N)=O)c2)O[C@@]1(C)C(F)(F)F", "note": "[Compound 120, 4-((2R,3S,4S,5R)-3-(2-(2-(3-(difluoromethyl)azetidin-1-yl)ethoxy)-3,4-difluorophenyl)-4,5-dimethyl-5-(trifluoromethyl)tetrahydrofuran-2-carboxamido)picolinamide]", "IC50": "< 10"}]}]}
